Data from US6358700B2, “Method for detecting microorganisms by fluorescent staining using hydrostatic pressure” (Japan Marine Science and Technology Center, priority 1998, dated 2002).

Tests used:
IFO2347 strain [1] = experiment: Dependency on glucose metabolism of pressure-induced CDCF accumulation; type: cell-based; conditions: Saccharomyces cerevisiae, MBA buffer with 100 mM D-glucose, 10 μM CDCFDA, FIG. 4B, read-out: concentration at which half-maximal inhibition of pressure-induced CDCF accumulation occurred
Experimental: Cells originated fiom a log-phase culture (2×10^7 to 4×10^7 cells/ml) were incubated with 10 μM CFDA (Sigma, Cat. No. C-5041) in YPD containing 50 mM citric acid (pH 3.0), or 10 μM CDCFDA Molecular Probe, Cat. No. C-369) in YPD containing 50 mM citric acid (pH 5.0), respectively, under varying hydrostatic pressures ranging from ordinary pressure to 60 MPa. To analyze the dependence, on glucose, of pressure-induced dye-accumulation, vegetative cells were collected, washed twice in distilled water and starved for 30 min on ice. […]
To analyze the effect of 2-deoxyglucose, cells were incubated with CDCFDA in MBA buffer containing 100 mM D-glucose. […] Fluorescence of the labeled cells emitted at 535 nm with excitation at 485 nm was detected using CytoFluor 2350 Plate Reader (available from Mlipore), or an RF5300PC spectrofluorometer (available from Shimazu, Japan). Fluorescence intensity (a. u.; arbitrary units) was recorded as the fluorescence of labeled cells minus the fluorescence of non-labeled cells for 10^7 cells.
The cells of the strain were cultured at 24° C. for one hour in MBA buffer containing a desired amount of D-glucose at a predetermined hydrostatic pressure (0.1 MPa (◯), 30 MPa (●)) in the presence of 10 μM CDCFDA. The labeled cells were analyzed using CytoFluor 2350. […]

IFO2347 strain [2] = experiment: Flow cytometry of CDCFDA-labeled cells; type: cell-based, Saccharomyces cerevisiae; conditions: for mean fluorescence of labeled cells / peak fluorescence of labeled cells: 10 μM CDCFDA, 24° C., one hour
Experimental: Cells were incubated with 10 μM CFDA or 10 μM CDCFDA and cultivated under several hydrostatic pressures for one hour. After decompression, the labeled (or stained) cells were washed twice with distilled water and re-suspended in MB buffer. The cells were analyzed using the Bryte-HS Flow Cytometry System (available from Bio-Rad) under ordinary pressure.
The IFO2347 strain was cultured at 24° C. for one hour in the presence of 10 μM CDCFDA, under a hydrostatic pressure of 0.1, 30 or 60 MPa. The CDCFDA-labeled cells (about 100,000) were analyzed using the Bryte-HS Flow Cytometry System. FIG.2A depicts the histograms showing the intensity distribution of populations of IFO2347 cells labeled with CDCFDA observed after the cultivation.

IFO10159 strain = experiment: Accumulation of CF and CDCF under elevated hydrostatic pressure (CytoFluor 2350); type: cell-based, Saccharomyces cerevisiae; conditions: ordinary pressure; for total fluorescence intensity of labeled cells: 10 μM dye, one hour
Experimental: (§1) Cells of Saccharomyces cerevisiae were grown in YPD (1% yeast extract, 2% bactopeptone, 2% D-glucose) broth at 24° C. Cells from a log-phase culture (2×10^7 to 4×10^7 cells/ml) were collected by centiifugation and re-suspended in fresh YPD containing 50 mM citric acid (pH 3.0 or pH 5.0), then placed in plastic tubes (Cryotubes, available from Nunc) at 2×10^7 to 3×10^7 cells/ml. After sealing with Parafilm, the tubes were put into titanium pressure vessels, followed by application of a desired hydrostatic pressure. The each required hydrostatic pressure was established within 2 min using a hand pump (available from Rigo-sha, Japan). To remove samples, the pressure was released in approximately 15 sec.
(§2) Cells originated fiom a log-phase culture (2×10^7 to 4×10^7 cells/ml) were incubated with 10 μM CFDA (Sigma, Cat. No. C-5041) in YPD containing 50 mM citric acid (pH 3.0), or 10 μM CDCFDA Molecular Probe, Cat. No. C-369) in YPD containing 50 mM citric acid (pH 5.0), respectively, under varying hydrostatic pressures ranging from ordinary pressure to 60 MPa. To analyze the dependence, on glucose, of pressure-induced dye-accumulation, vegetative cells were collected, washed twice in distilled water and starved for 30 min on ice. Then cells were suspended in MBA buffer (100 mM MES-Bis-Tris, 100 mM ammonium sulfate, pH 5.0), followed by addition of CDCFDA and application of a desired hydrostatic pressure of up to 6OMPa for one hour in the presence of D-glucose in various concentrations.
(§3) To analyze the effect of 2-deoxyglucose, cells were incubated with CDCFDA in MBA buffer containing 100 mM D-glucose. Unless otherwise specified, the final concentration of the fluorescent dye was 10 μM. After applying a desired hydrostatic pressure for one hour, the cells were washed twice with 10 mM MES-Bis-Tris (pH 5.0) and suspended in MB buffer. Fluorescence of the labeled cells emitted at 535 nm with excitation at 485 nm was detected using CytoFluor 2350 Plate Reader (available from Mlipore), or an RF5300PC spectrofluorometer (available from Shimazu, Japan). Fluorescence intensity (a. u.; arbitrary units) was recorded as the fluorescence of labeled cells minus the fluorescence of non-labeled cells for 10^7 cells.
(§4) Cells of the IFO2347 strain were incubated with 10 μM of CFDA or CDCFDA and cultured for one hour under each hydrostatic pressure condition. The stained cells were analyzed using Cytofluor 2350. The results thus obtained are plotted on FIG. 1A Similarly, cells of IFO10159 strain were inoculated with 10 μM of CFDA or CDCFDA and cultured for one hour under each hydrostatic pressure condition. The stained cells were analyzed using Cytofluor 2350. The results thus obtained are plotted on FIG. 1B. In FIGS. 1A and 1B, ◯ and ● represent cells stained with CF and those stained with CDCF, respectively.

IFO2347 strain [3] = experiment: as above; type: cell-based, Saccharomyces cerevisiae; conditions: 10 μM CFDA or CDCFDA, one hour, FIG. 1A
Experimental: as §1, §2, §3, §4

IFO2347 strain [4] = experiment: Effects of hydrostatic pressure on hydrolysis of CDCFDA; type: cell-based, Saccharomyces cerevisiae; conditions: for fluorescence intensity reached (hydrolysis under pressure): 50 μM CDCFDA, FIG. 3A
Source text: Fluorescence emission was examined under several hydrostatic pressures in a hydrostatic chamber provided with transparent windows which were made by sapphire (size: 10×8 mm). Each sample in a transparent cuvette was placed in the chamber which was set up in an RF5300PC spectrofluorometer. Fluorescence was emitted at 535 nm with excitation at 485 nm. The fluorescence intensity of the labeled cells was strong enough to be detected through the sapphire windows, even though the emission was reduced compared to the analysis without such a hydrostatic chamber equipped with a sapphire window. Each hydrostatic pressure was applied using a hand pump (available from Teramecs, Co. Ltd., Japan).
A cuvette containing the IFO2347 strain was fitted to a container, followed by addition of 50 μM CDCFDA, application of a hydrostatic pressure at a point P (see FIG. 3A), and examination of the fluorescence intensity change with time in a hydrostatic chamber equipped with RF5300 Fluorescent Spectrometer. The results obtained are plotted on FIG. 3A The fluorescence intensity increased to 300 a.u. and 130 a.u. when hydrostatic pressures of 0.1 MPa (ordinary pressure) and 60 MPa were applied, respectively (FIG. 3A). On the other hand, the fluorescence intensity increased to 770 a.u. when a pressure of 30 MPa was applied.
Cells of the IFD2347 strain were pre-incubated at several hydrostatic pressures for one hour in YPD culture medium (pH 5.0), and subsequently the pre-incubated cells were placed into a cuvette, followed by addition of 50 μM of CDCFDA to the pressure-adapted cells at ordinary pressure and examination of any change in the fluorescence intensity (the hydrolysis activity) by the same method as used above. The results thus obtained are plotted on FIG. 3B. […] Almost identical results were obtained when using CFDA (data not shown).

O=CC[C@@H](O)[C@H](O)[C@H](O)CO [2-deoxyglucose]
IC50 (IFO2347 strain [1]): ~12 mM

Carboxydichlorofluorescein [CDCF]
mean fluorescence of labeled cells (IFO2347 strain [2]; 0.1 MPa (ordinary pressure)): 26 a.u.
peak fluorescence of labeled cells (IFO2347 strain [2]; 0.1 MPa (ordinary pressure)): 23 a.u.
increase of accumulation of CDCF (IFO2347 strain [2]; 30 MPa for one hour versus ordinary pressure): four to six folds
mean fluorescence of labeled cells (IFO2347 strain [2]; 30 MPa): 162 a.u.
peak fluorescence of labeled cells (IFO2347 strain [2]; 30 MPa): 92 a.u.
enhancement of staining (IFO2347 strain [2]; 60 MPa): not enhanced
fluorescence intensity relative to non-labeled cells (IFO10159 strain): about 2.5 fold
total fluorescence intensity of labeled cells (IFO10159 strain): 24.8 a. u. per 10^7 cells
hydrostatic pressure at which accumulation peaks (IFO2347 strain [3]): 30 MPa

Carboxydichlorofluorescein diacetate [CDCFDA]
fluorescence intensity reached (hydrolysis under pressure) (IFO2347 strain [4]; 0.1 MPa (ordinary pressure)): 300 a.u.
fluorescence intensity reached (hydrolysis under pressure) (IFO2347 strain [4]; 30 MPa): 770 a.u.
fluorescence intensity reached (hydrolysis under pressure) (IFO2347 strain [4]; 60 MPa): 130 a.u.
rate of hydrolysis by cells adapted to 30 MPa relative to cells adapted to 0.1 MPa or 60 MPa (IFO2347 strain [4]; pre-incubation one hour, 50 μM CDCFDA added at ordinary pressure, FIG. 3B): approximately three times greater

Carboxyfluorescein [CF]
fluorescence intensity relative to non-labeled cells (IFO10159 strain): 1.6 fold
total fluorescence intensity of labeled cells (IFO10159 strain): 15.5 a. u. per 10^7 cells
hydrostatic pressure at which accumulation peaks (IFO2347 strain [3]): 40 MPa
